Experiments:
[1] = biological target: purified human, His-tagged PRC2 complex (Homo sapiens, UniProt O75530+Q15910); assay: Hot Spot HMT assay: inhibition of PRC2 enzymatic activity (transfer of tritiated methyl from SAM to core histone, filter binding); format: biochemical; settings: Inhibition of PRC2-mediated enzymatic activity; 10 nM PRC2 complex, 0.05 mg/ml core histone H3, 1 uM 3H-SAM, 1 hr at 30°C
Procedure, shortened: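 Five-subunit complex (His-EZH2, Flag-EED, His-SUZ12, His-AEBP2, His-RbAp48) at 10 nM with 0.05 mg/ml core histone H3, pH 8 Tris buffer, 1% DMSO; 20 min compound pre-incubation at 30°C. Started with 1 uM [3H]-SAM, 1 hr at 30°C; tritiated H3 counted by scintillation. Compounds diluted from 1.0 µM top concentration.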

[2] = tested on: PRC2-mediated histone H3 methylation; assay: Tri-Methyl Histone H3 (Lys 27) Sandwich ELISA in Pfeiffer cells: inhibition of PRC2-mediated histone H3 methylation; format: cell-based, human; settings: Inhibition of EZH2-mediated histone H3 trimethylation, Pfeiffer cells (EZH2 A677G), 96 hours incubation
Description: The Pfeiffer cell line was established from a […] from a patient having metastatic diffuse large B-cell lymphoma (DLBCL). This cell line expresses a mutant form of the EZH2 enzyme (A677G) that results in enhanced EZH2 activity leading to increased methylation of histone H3 Lys27. Increased trimethylation of histone H3 Lys27 is believed to be implicated in tumorgenesis and poor clinical prognosis in lymphomas (McCabe et al., (2012) Nature 492:108-112).
Inhibition of PRC2-mediated histone H3 methylation by compounds of Formula (I) was measured by ELISA using a Tri-Methyl Histone H3 (Lys 27) Sandwich ELISA Kit (Cell Signaling Tech #7866C) in accordance with the manufacturer's instructions. Briefly, Pfeiffer cells were cultured in RPMI medium supplemented with 10% fetal bovine serum and 1% penicillin and 1% streptomycin in 96 well culture plates at 37°C to a density of 8000 cells/90µl/well and the cells were harvested. A series of 3-fold serial dilutions of each test compound of Formula (I) were prepared in RPMI medium and added to the cells at final concentrations ranging from 1µM to 0.15 nM. The plates were incubated at 37°C for 96 hours.
After incubation, the cells were pelleted by centrifugation in a pre-cooled 4°C rotor at 1, 100 rpm for 10 min and the supernatant was removed by aspiration. The cell pellet was resuspended in 55µl of Lysis Buffer (0.4M HCl) and incubated on ice with periodic shaking for 30 minutes. The lysed cells were subjected to centrifugation at 4, 200 rpm for 10 min at 4°C and the supernatant containing acid-soluble proteins was collected and the remainder discarded. The acid-soluble proteins were brought to a neutral pH by the addition of 20 µl of Neutralization Buffer (1 M Sodium phosphate, dibasic (pH 12.5), 2.5 mM DTT and 1 mM PMSF) and the neutralized lysates were analyzed by ELISA.
A 65 µl aliquot of each cell lysate was added to a well of a microwell strip, the microwells were sealed using tape and incubated either at 37°C for two hours or at 4°C overnight. After incubation, the tape was removed at the microwells were washed four times using 200 µl of 1X Wash Buffer. To each washed microwell, a 100 µl aliquot of an antitrimethyl histone H3 Lys27 Detection Antibody solution was added and the microwells were incubated at 37°C for one hour. The Detection Antibody solution was removed by aspiration and the wells were washed four times each using 200 µl of 1X Wash Buffer.
A 100 µl aliquot of an HRP-linked secondary antibody was added to each well, the wells were sealed with tape and incubated at 37°C for 30 min. The HRP-linked secondary antibody solution was removed by aspiration and the wells were washed four times using 200 µl of 1X Wash Buffer. A 100 µl aliquot of a TMB substrate was added to each well, the wells were sealed with tape and incubated at 37°C for 10 min or 25°C for 30 min. The reaction was stopped by the addition of 100 µl aliquot of a STOP solution and the plate was shaken briefly. The degree of histone H3 trimethylation was determined using a spectrophotometric readout by measuring the absorbance at 450 nm and then calculating the amount of trimethylated histone H3. A = ≤100 nM; B = >100 nM - ≤500 nM; C = >500 nM and N.D. = not determined.

Karpas 422 cells = assay: Karpas 422 cell viability, CTG (Cell Titre Glo) assay; format: cell-based, human; settings: Inhibition of proliferation of Karpas 422 cells (EZH2 Y641N), viability measured Day 4, Day 7 or Day 11, time point of the tabulated values not stated
Procedure, shortened: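 Karpas 422 cells (EZH2 Y641N, DLBCL) plated at 1000 cells/well in RPMI with 20% FBS, exposed to compound 10µM down to 1.5nM in 3-fold steps at 37 °C. Viability by CellTiter-Glo on Days 4, 7 and 11; Day 11 plates re-fed with fresh medium and compound on Day 7. IC50 per time point.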

purified human, His-tagged PRC2 complex, sequence (Q15910 whole entry): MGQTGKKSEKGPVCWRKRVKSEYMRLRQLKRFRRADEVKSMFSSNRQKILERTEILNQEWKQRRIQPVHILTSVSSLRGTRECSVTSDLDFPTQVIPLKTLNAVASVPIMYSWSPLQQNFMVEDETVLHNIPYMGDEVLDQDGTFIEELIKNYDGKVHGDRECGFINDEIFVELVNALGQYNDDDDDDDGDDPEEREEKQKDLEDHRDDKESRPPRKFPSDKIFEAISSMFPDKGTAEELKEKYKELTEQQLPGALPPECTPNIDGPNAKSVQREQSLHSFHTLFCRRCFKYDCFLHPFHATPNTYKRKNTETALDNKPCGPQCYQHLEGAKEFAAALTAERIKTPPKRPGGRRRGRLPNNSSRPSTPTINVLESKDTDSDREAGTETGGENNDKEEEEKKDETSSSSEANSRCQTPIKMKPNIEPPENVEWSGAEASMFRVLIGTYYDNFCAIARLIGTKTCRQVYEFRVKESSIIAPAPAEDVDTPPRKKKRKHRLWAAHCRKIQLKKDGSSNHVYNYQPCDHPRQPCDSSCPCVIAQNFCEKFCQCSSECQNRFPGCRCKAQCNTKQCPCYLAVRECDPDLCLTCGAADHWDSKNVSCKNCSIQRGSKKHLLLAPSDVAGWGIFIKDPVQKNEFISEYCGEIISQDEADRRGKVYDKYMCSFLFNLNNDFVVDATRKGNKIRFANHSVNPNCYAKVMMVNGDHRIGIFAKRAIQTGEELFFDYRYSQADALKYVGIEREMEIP
purified human, His-tagged PRC2 complex, sequence (O75530 whole entry): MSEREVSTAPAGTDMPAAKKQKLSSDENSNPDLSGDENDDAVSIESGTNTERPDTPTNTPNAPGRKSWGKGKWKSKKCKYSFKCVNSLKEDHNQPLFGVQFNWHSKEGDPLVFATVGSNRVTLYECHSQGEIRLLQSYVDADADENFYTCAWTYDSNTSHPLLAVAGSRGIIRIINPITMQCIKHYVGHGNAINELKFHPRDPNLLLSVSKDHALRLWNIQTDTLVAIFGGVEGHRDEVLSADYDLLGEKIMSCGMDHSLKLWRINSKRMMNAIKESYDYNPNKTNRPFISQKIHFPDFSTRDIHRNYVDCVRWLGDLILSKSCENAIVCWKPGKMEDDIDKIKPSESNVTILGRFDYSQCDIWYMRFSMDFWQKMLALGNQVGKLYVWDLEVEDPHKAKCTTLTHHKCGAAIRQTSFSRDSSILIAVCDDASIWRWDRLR
purified human, His-tagged PRC2 complex, sequence (Q15022 whole entry partner): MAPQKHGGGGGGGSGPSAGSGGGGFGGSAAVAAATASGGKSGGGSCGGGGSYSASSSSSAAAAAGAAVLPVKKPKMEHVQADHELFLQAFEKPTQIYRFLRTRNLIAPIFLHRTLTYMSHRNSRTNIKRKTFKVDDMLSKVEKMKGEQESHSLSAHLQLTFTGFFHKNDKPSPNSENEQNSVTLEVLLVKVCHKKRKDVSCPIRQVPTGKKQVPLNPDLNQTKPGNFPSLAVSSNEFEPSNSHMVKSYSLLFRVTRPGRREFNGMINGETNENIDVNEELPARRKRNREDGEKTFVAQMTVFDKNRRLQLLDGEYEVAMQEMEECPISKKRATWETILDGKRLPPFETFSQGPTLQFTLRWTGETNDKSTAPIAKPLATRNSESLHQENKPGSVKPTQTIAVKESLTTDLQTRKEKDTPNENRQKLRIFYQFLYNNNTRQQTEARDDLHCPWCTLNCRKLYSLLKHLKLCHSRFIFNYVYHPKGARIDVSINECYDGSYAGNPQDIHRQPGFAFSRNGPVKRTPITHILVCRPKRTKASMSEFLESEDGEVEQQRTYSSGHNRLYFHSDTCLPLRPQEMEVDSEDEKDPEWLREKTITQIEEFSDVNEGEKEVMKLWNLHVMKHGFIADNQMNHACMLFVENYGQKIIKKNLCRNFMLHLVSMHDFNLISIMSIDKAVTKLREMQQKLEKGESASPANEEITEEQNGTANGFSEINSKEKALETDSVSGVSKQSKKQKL
purified human, His-tagged PRC2 complex, sequence (Q6ZN18 whole entry partner): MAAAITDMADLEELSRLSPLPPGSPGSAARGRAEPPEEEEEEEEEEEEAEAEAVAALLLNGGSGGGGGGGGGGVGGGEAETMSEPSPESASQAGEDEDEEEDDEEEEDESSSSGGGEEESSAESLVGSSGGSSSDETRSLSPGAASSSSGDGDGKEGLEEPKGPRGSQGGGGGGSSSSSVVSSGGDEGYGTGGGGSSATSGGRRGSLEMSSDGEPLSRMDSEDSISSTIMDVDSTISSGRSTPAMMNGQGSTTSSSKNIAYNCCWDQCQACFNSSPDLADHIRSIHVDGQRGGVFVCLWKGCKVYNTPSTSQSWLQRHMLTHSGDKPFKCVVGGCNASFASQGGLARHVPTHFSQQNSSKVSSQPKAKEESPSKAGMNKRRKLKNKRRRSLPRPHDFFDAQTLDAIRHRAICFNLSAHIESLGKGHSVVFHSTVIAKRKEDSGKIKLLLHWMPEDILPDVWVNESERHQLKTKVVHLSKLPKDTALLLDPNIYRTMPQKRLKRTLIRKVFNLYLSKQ
purified human, His-tagged PRC2 complex, sequence (Q09028 whole entry partner): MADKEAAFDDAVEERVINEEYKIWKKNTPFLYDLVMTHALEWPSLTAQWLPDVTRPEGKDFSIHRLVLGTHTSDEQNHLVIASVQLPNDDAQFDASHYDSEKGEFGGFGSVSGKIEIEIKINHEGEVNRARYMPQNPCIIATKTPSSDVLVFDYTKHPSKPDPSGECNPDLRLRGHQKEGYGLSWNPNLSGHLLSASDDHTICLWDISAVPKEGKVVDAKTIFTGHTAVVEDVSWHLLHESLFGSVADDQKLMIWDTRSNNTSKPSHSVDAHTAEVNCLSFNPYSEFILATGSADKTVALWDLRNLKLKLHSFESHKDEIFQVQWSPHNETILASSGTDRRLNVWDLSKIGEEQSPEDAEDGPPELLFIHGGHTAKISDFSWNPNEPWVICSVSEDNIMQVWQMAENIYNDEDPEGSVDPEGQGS

Row | Compound | IC50 [1] [nM] | IC50 ([2]; Homo sapiens) [nM] | IC50 (Karpas 422 cells; Homo sapiens) [nM] | IC50 [2] [nM] | IC50 (Karpas 422 cells) [nM]
1 | N#Cc1cn2c(NCc3c(F)ccc4c3CCO4)ncc(-c3ccc(C4CCCN4)cc3)c2n1 (stereo not drawn) [Example 204, 5-(((5-fluoro-2,3-dihydrobenzofuran-4-yl)methyl)amino)-8-(4-(pyrrolidin-2-yl)phenyl)imidazo[1,2-c]pyrimidine-2-carbonitrile] | 100 to 500 | ≤ 100 | ≤ 250 |  | 
2 | N#Cc1cn2c(NCc3c(F)ccc4c3CCO4)ncc(-c3ccc(CN4CCCC4)cc3)c2n1 [Example 74, 5-(((5-fluoro-2,3-dihydrobenzofuran-4-yl)methyl)amino)-8-(4-(pyrrolidin-1 - ylmethyl)phenyl)imidazo[1,2-c]pyrimidine-2-carbonitrile] | < 100 | ≤ 100 | ≤ 250 |  | 
3 | N#Cc1cn2c(NCc3c(F)ccc4c3CCO4)ncc(-c3ccnn3C3CC3)c2n1 [Example 193, 8-(1-cyclopropyl-1H-pyrazol-5-yl)-5-(((5-fluoro-2,3-dihydrobenzofuran-4-yl)methyl)amino)imidazo[1,2-c]pyrimidine-2-carbonitrile] | < 100 | 100 to 500 | ≤ 250 |  | 
4 | N#Cc1cn2c(NCc3c(F)ccc4c3CCO4)ncc(-c3ccc(C4CC(=O)N4)cc3)c2n1 (stereo not drawn) [Example 222, 5-(((5-fluoro-2,3-dihydrobenzofuran-4-yl)methyl)amino)-8-(4-(4-oxoazetidin-2-yl)phenyl)imidazo[1,2-c]pyrimidine-2-carbonitrile] | < 100 | ≤ 100 | ≤ 250 |  | 
5 | N#Cc1cn2c(NCc3c(F)ccc4c3CCO4)ncc(C3CC3)c2n1 [Example 77, 8-cyclopropyl-5-(((5-fluoro-2,3-dihydrobenzofuran-4-yl)methyl)amino)imidazo[1,2-c]pyrimidine-2-carbonitrile] | 100 to 500 | > 500 | > 500 |  | 
6 | Cn1nc(C2CC2)cc1-c1cnc(NCc2c(F)ccc3c2CCO3)n2cc(C#N)nc12 [Example 144, 8-(3-cyclopropyl-1-methyl-1H-pyrazol-5-yl)-5-(((5-fluoro-2,3-dihydrobenzofuran-4-yl)methyl)amino)imidazo[1,2-c]pyrimidine-2-carbonitrile] | < 100 | 100 to 500 | ≤ 250 |  | 
7 | N#Cc1cn2c(NCc3c(F)ccc4c3CCO4)ncc(-c3ccccn3)c2n1 [Example 146, 5-(((5-fluoro-2,3-dihydrobenzofuran-4-yl)methyl)amino)-8-(pyridin-2-yl)imidazo[1,2-c]pyrlmldlne-2-carbonltrlle] | 100 to 500 | 100 to 500 | ≤ 250 |  | 
8 | 5-(((5-fluoro-2,3-dihydrobenzofuran-4-yl)methyl)amino)-8-(2-methylpyridin-4-yl)imidazo[1,2-c]pyrimidine-2-carbonitrile [Example 178] | 100 to 500 |  |  | 100 to 500 | ≤ 250
9 | Cc1cc(CN(C)C)ncc1-c1cnc(NCc2c(F)ccc3c2CCO3)n2cc(C#N)nc12 [Example 195, 8-(6-((dimethylamino)methyl)-4-methylpyridin-3-yl)-5-(((5-fluoro-2,3-dihydrobenzofuran-4-yl)methyl)amino)imidazo[1,2-c]pyrimidine-2-carbonitrile] | < 100 | ≤ 100 | ≤ 250 |  | 
10 | N#Cc1cn2c(NCc3c(F)ccc4c3CCO4)ncc(-c3ccc(C(=O)O)cc3)c2n1 [Example 183, 4-(2-cyano-5-(((5-fluoro-2,3-dihydrobenzofuran-4-yl)methyl)amino)imidazo[1,2-c]pyrimidin-8-yl)benzoic acid] | < 100 | > 500 | > 500 |  | 
11 | N#Cc1cn2c(NCc3c(F)ccc4c3CCO4)ncc(-c3ccc([C@@H]4CCCN4)cc3)c2n1 [Example 219, (S)-5-(((5-fluoro-2,3-dihydrobenzofuran-4-yl)methyl)amino)-8-(4-(pyrrolidin-2-yl)phenyl)imidazo[1,2-c]pyrimidine-2-carbonitrile] | < 100 | 100 to 500 | ≤ 250 |  | 
12 | CN(C)C(=O)c1cc(F)c(-c2cnc(NCc3c(F)ccc4c3CCO4)n3cc(C#N)nc23)cc1F [Example 38, 4-(2-cyano-5-(((5-fluoro-2,3-dihydrobenzofuran-4-yl)methyl)amino)imidazo[1,2-c]pyrimidin-8-yl)-2,5-difluoro-N,N-dimethylbenzamide] | < 100 | ≤ 100 | ≤ 250 |  | 
13 | Cc1cc(C2CCCN2)ccc1-c1cnc(NCc2c(F)ccc3c2CCO3)n2cc(C#N)nc12 (single isomer, unassigned) [Example 214, 5-(((5-fluoro-2,3-dihydrobenzofuran-4-yl)methyl)amino)-8-(2-methyl-4-(pyrrolidin-2-yl)phenyl)imidazo[1,2-c]pyrimidine-2-carbonitrile] | < 100 |  |  | 100 to 500 | ≤ 250
14 | Cc1cc(-c2cnc(NCc3c(F)ccc4c3CCO4)n3cc(C(=O)O)nc23)n(C)n1 [Example 1, 8-(1,3-dimethyl-1H-pyrazol-5-yl)-5-(((5-fluoro-2,3-dihydrobenzofuran-4-yl)methyl)amino)imidazo[1,2-c]pyrimidine-2-carboxylic acid] |  | > 500 | > 500 |  | 
15 | Cn1nc(C(=O)N2CCOCC2)cc1-c1cnc(NCc2c(F)ccc3c2CCO3)n2cc(C#N)nc12 [Example 209, 5-(((5-fluoro-2,3-dihydrobenzofuran-4-yl)methyl)amino)-8-(1-methyl-3-(morpholine-4-carbonyl)-1H-pyrazol-5-yl)imidazo[1,2-c]pyrimidine-2-carbonitrile] |  | ≤ 100 | ≤ 250 |  | 
16 | Cc1cc(C2CCCN2)ccc1-c1cnc(NCc2c(F)ccc3c2CCO3)n2cc(C#N)nc12 (single isomer, unassigned) [Example 213, 5-(((5-fluoro-2,3-dihydrobenzofuran-4-yl)methyl)amino)-8-(2-methyl-4-(pyrrolidin-2-yl)phenyl)imidazo[1,2-c]pyrimidine-2-carbonitrile] |  | 100 to 500 | ≤ 250 |  | 
17 | Cc1ncccc1-c1cnc(NCc2c(F)ccc3c2CCO3)n2cc(C(=O)O)nc12 [Example 2, 5-(((5-fluoro-2,3-dihydrobenzofuran-4-yl)methyl)amino)-8-(2-methylpyridin-3-yl)imidazo[1,2-c]pyrimidine-2-carboxylic acid] |  | > 500 | > 500 |  | 
18 | Cn1nc(C(F)(F)F)cc1-c1cnc(NCc2c(F)ccc3c2CCO3)n2cc(C#N)nc12 [Example 111, 5-(((5-fluoro-2,3-dihydrobenzofuran-4-yl)methyl)amino)-8-(1-methyl-3-(trifluoromethyl)-1H-pyrazol-5-yl)imidazo[1,2-c]pyrimidine-2-carbonitrile] | < 100 | ≤ 100 |  |  | 
19 | CC(c1ccc(-c2cnc(NCc3c(F)ccc4c3CCO4)n3cc(C#N)nc23)cc1)N1CCCC1 (stereo not drawn) [Example 90, 5-(((5-fluoro-2,3-dihydrobenzofuran-4-yl)methyl)amino)-8-(4-(1-(pyrrolidin-1-yl)ethyl)phenyl)imidazo[1,2-c]pyrimidine-2-carbonitrile] | < 100 | ≤ 100 |  |  | 
